Read-outs that look alike come from different tables or passages of the source.
Assays:
[1] = Pharmacokinetic (PK) study in ICR mice, IV and PO
Experimental: (§1) The doses for IV and PO were 2 mg/kg and 5 mg/kg, respectively. Blood was collected at different time points after IV and PO administration and placed in heparinized tubes. Plasma was separated and frozen in a −20° C. refrigerator. Plasma was processed and then analyzed by LCMS/MS. Pharmacokinetic parameters of drug administration were calculated using a non-compartmental model in WinNonlin 8.2 software.

[2] = system: mouse colorectal cancer CT26 cell line; experiment: Subcutaneous tumor model of female Balb/c mice transplanted with mouse colorectal cancer CT26 cell line; type: in vivo; details: separate CT26 model cohort, 20 mg/kg
Experimental: Pharmacodynamic Evaluation of Test Compounds in a Subcutaneous Tumor Model of Female Balb/c Mice Transplanted with Mouse Colorectal Cancer CT26 Cell Line
CT-26 tumor cells were cultured in a suitable culture medium. Cells in the exponential growth phase were collected and subcutaneously inoculated into the right back of experimental mice. Tumor growth was observed regularly after inoculation. When the tumor reached an average volume of approximately 100 mm^3, mice were randomly grouped based on tumor size and body weight for administration. The day of grouping was defined as Day 0. Test compounds were administered orally once weekly for 4 times. The efficacy was evaluated by calculating the tumor growth inhibition (TGI) based on the tumor volume, and the safety was evaluated based on the changes in animal body weight and death. […] All test compounds were well-tolerated.

[3] = mouse; for oral availability: ICR, in vivo, 5 mg/kg; for clearance in vivo compared to MAS-2: po
Experimental: as §1

in vivo = details: ICR, mouse
Experimental: as §1

human STING protein = human STING protein (Homo sapiens, UniProt Q86WV6); details: cited from earlier work
[4] = system: human non-small cell lung cancer; details: in combination with standard chemotherapy; cited from earlier work
[5] = ICR, mouse, plasma, iv, 2 mg/kg
[6] = ICR, mouse, plasma, po, 5 mg/kg
[7] = mouse PK, injection 2 mg/kg and oral 5 mg/kg

Sequence of human STING protein (Q86WV6 whole entry): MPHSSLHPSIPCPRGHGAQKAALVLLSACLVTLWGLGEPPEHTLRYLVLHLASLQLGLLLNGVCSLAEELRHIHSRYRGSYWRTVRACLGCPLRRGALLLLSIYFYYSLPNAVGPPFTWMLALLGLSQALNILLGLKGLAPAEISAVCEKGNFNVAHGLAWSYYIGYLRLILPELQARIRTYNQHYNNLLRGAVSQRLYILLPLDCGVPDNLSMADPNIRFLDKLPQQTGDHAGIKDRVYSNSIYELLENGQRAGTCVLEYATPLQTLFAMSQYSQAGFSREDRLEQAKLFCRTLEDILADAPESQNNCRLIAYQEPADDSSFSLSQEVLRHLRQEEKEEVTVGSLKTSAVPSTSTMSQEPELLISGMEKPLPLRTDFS

Row | Structure (SMILES) | tumor growth inhibition (TGI) [2] [%] | oral availability [3] [%] | clearance in vivo compared to MAS-2 [3] | AUC(0-t) (in vivo; iv, 2 mg/kg) [ng·h/mL] | Vd (in vivo; iv, 2 mg/kg) [L/kg] | clearance (in vivo; iv, 2 mg/kg) [mL/min/kg] | half-life (in vivo; iv, 2 mg/kg) [h] | AUC(0-t) (in vivo; po, 5 mg/kg) [ng·h/mL] | Cmax (in vivo; po, 5 mg/kg) [ng/mL] | bioavailability (in vivo; po, 5 mg/kg) [%] | half-life (in vivo; po, 5 mg/kg) [h] | further results
1 | CC[C@@H](CC(=O)c1cc2c(cc(OC)c3ocnc32)s1)C(=O)O [Compound 51] | 99 | – | – | – | – | – | – | – | – | – | – | AUC(0-t) [1, 5]: 3240 ng·h/mL; Vd [1, 5]: 1.28 L/kg; clearance [1, 5]: 10.2 mL/min/kg; half-life [1, 5]: 4.36 h; AUC(0-t) [1, 6]: 8550 ng·h/mL; Cmax [1, 6]: 4550 ng/mL; bioavailability [1, 6]: 105%; half-life [1, 6]: 3.1 h; clearance in vivo compared to MAS-2 [1, 7]: lower clearance; exposure in vivo compared to MAS-2 [1, 7]: higher exposure; oral availability ([1]; mouse PK, oral administration at 5 mg/kg): 100%
2 | CC[C@@H](CC(=O)c1cc2c(cc(OC)c3oc(C)nc32)s1)C(=O)O [Compound 53] | 101 | – | – | – | – | – | – | – | – | – | – | –
3 | COc1cc2sc(C(=O)C[C@H](C)C(=O)O)cc2c2ncoc12 [Example 46, (S)-4-(4-methoxythieno[2′,3′:5,6]benzo[1,2-d]oxazol-7-yl)-2-methyl-4-oxobutanoic acid] | – | 64.6 | lower clearance | 3540 | 0.32 | 9.38 | 1.72 | 5710 | 6480 | 64.6 | 1.61 | –
4 | Cc1ccc2c(=O)c3cccc(CC(=O)O)c3oc2c1C [DMXAA] | – | – | – | – | – | – | – | – | – | – | – | activation of human STING protein (human STING protein): fails to activate; clinical efficacy [4]: failed to show significant efficacy
5 | COc1cc2sc(C(=O)CC(C)C(=O)O)cc2c2ncoc12 (centres unmarked) [Example 12] | – | 100 | lower clearance | 1570 | 0.49 | 21.2 | 1.5 | 4060 | 6020 | 104 | 2 | –

Source: patent publication US20260242392A1, “ARYL TRICYCLIC STING AGONISTS AND USE THEREOF” (SHENZHEN GENUINE BIOTECHNOLOGY CO., LTD., priority 2023, published 2026)
